In brackets after ≈: the same amount, converted by molar mass.
Legend:
[1] = test system: CCRF-CEM; test: Growth inhibition of human CCRF-CEM cells at 10^-5 M incubated for 48 hrs by sulforhodamine B assay relative to control; assay type: functional; details: read-out: GI
[2] = test system: HL-60(TB); test: Growth inhibition of human HL-60(TB) cells at 10^-5 M incubated for 48 hrs by sulforhodamine B assay relative to control; assay type: functional; details: HL-60, 48 h, read-out: GI
[3] = test system: K562; test: Growth inhibition of human K562 cells at 10^-5 M incubated for 48 hrs by sulforhodamine B assay relative to control; assay type: functional; details: K562, 48 h, read-out: GI
[4] = test system: MOLT-4; test: Growth inhibition of human MOLT4 cells at 10^-5 M incubated for 48 hrs by sulforhodamine B assay relative to control; assay type: functional; details: MOLT-4, 48 h, read-out: GI
[5] = test system: RPMI-8226; test: Growth inhibition of human RPMI8226 cells at 10^-5 M incubated for 48 hrs by sulforhodamine B assay relative to control; assay type: functional; details: RPMI-8226, 48 h, read-out: GI
[6] = test system: HOP-62; test: Growth inhibition of human HOP62 cells at 10^-5 M incubated for 48 hrs by sulforhodamine B assay relative to control; assay type: functional; details: HOP-62, 48 h, read-out: GI
[7] = test system: HOP-92; test: Growth inhibition of human HOP92 cells at 10^-5 M incubated for 48 hrs by sulforhodamine B assay relative to control; assay type: functional; details: HOP-92, 48 h, read-out: GI
[8] = test system: NCI-H226; test: Growth inhibition of human NCI-H226 cells at 10^-5 M incubated for 48 hrs by sulforhodamine B assay relative to control; assay type: functional; details: NCI-H226, 48 h, read-out: GI
[9] = test system: SF-539; test: Growth inhibition of human SF539 cells at 10^-5 M incubated for 48 hrs by sulforhodamine B assay relative to control; assay type: functional; details: SF-539, 48 h, read-out: GI
[10] = test system: SNB-75; test: Growth inhibition of human SNB75 cells at 10^-5 M incubated for 48 hrs by sulforhodamine B assay relative to control; assay type: functional; details: SNB-75, 48 h, read-out: GI
[11] = test system: LOX IMVI; test: Growth inhibition of human LOXIMVI cells at 10^-5 M incubated for 48 hrs by sulforhodamine B assay relative to control; assay type: functional; details: read-out: GI
[12] = test system: SK-MEL-5; test: Growth inhibition of human SK-MEL-5 cells at 10^-5 M incubated for 48 hrs by sulforhodamine B assay relative to control; assay type: functional; details: SK-MEL-5, 48 h, read-out: GI
[13] = test system: IGROV-1; test: Growth inhibition of human IGROV1 cells at 10^-5 M incubated for 48 hrs by sulforhodamine B assay relative to control; assay type: functional; details: IGROV-1, 48 h, read-out: GI
[14] = test system: A498; test: Growth inhibition of human A498 cells at 10^-5 M incubated for 48 hrs by sulforhodamine B assay relative to control; assay type: functional; details: A498, 48 h, read-out: GI
[15] = test system: UO-31; test: Growth inhibition of human UO31 cells at 10^-5 M incubated for 48 hrs by sulforhodamine B assay relative to control; assay type: functional; details: UO-31, 48 h, read-out: GI
[16] = test system: PC-3; test: Growth inhibition of human PC3 cells at 10^-5 M incubated for 48 hrs by sulforhodamine B assay relative to control; assay type: functional; details: PC-3, 48 h, read-out: GI
[17] = test system: MCF7; test: Growth inhibition of human MCF7 cells at 10^-5 M incubated for 48 hrs by sulforhodamine B assay relative to control; assay type: functional; details: MCF7, 48 h, read-out: GI
[18] = test system: MDA-MB-231; test: Growth inhibition of human MDA-MB-231 cells at 10^-5 M incubated for 48 hrs by sulforhodamine B assay relative to control; assay type: functional; details: MDA-MB-231, 48 h, read-out: GI
[19] = test system: T47D; test: Growth inhibition of human T47D cells at 10^-5 M incubated for 48 hrs by sulforhodamine B assay relative to control; assay type: functional; details: read-out: GI
[20] = test system: MDA-MB-468; test: Growth inhibition of human MDA-MB-468 cells at 10^-5 M incubated for 48 hrs by sulforhodamine B assay relative to control; assay type: functional; details: MDA-MB-468, 48 h, read-out: GI
[21] = test system: HL-60; test: Antiproliferative activity against human HL60 cells after 48 hrs by MTT assay; assay type: functional, cell-based; details: HL-60, 48 h
[22] = test system: HL-60; test: Potency index, ratio of doxorubicin IC50 to compound IC50 for antiproliferative activity against human HL60 cells; assay type: functional
[23] = test system: HL-60; test: Antiproliferative activity against human HL60 cells after 48 hrs by SRB assay; assay type: functional; details: HL-60, 48 h, read-out: LC50 (the source's name)
[24] = test system: Bacillus subtilis; test: Antibacterial activity against Bacillus subtilis at 37 degC measured after 24 hrs by agar disc diffusion method; assay type: functional
[25] = test system: Bacillus subtilis; test: Antibacterial activity against Bacillus subtilis at 37 degC measured after 24 hrs by CLSI M7-A4 protocol based method; assay type: functional
[26] = test system: Staphylococcus aureus; test: Antibacterial activity against Staphylococcus aureus at 37 degC measured after 24 hrs by agar disc diffusion method; assay type: functional
[27] = test system: Escherichia coli; test: Antibacterial activity against Escherichia coli at 37 degC measured after 24 hrs by agar disc diffusion method; assay type: functional
[28] = test system: Pseudomonas aeruginosa; test: Antibacterial activity against Pseudomonas aeruginosa at 37 degC measured after 24 hrs by agar disc diffusion method; assay type: functional
[29] = test system: Pseudomonas aeruginosa; test: Antibacterial activity against Pseudomonas aeruginosa at 37 degC measured after 24 hrs by CLSI M7-A4 protocol based method; assay type: functional
[30] = test system: UO-31; test: Antiproliferative activity against human UO31 cells after 48 hrs by MTT assay; assay type: functional, cell-based; details: UO-31, 48 h
[31] = test system: MDA-MB-468; test: Antiproliferative activity against human MDA-MB-468 cells after 48 hrs by MTT assay; assay type: functional, cell-based; details: MDA-MB-468, 48 h
[32] = test system: UO-31; test: Potency index, ratio of doxorubicin IC50 to compound IC50 for antiproliferative activity against human UO31 cells; assay type: functional
[33] = test system: MDA-MB-468; test: Potency index, ratio of doxorubicin IC50 to compound IC50 for antiproliferative activity against human MDA-MB-468 cells; assay type: functional
[34] = test system: UO-31; test: Antiproliferative activity against human UO31 cells after 48 hrs by SRB assay; assay type: functional; details: UO-31, 48 h
[35] = test system: MDA-MB-468; test: Antiproliferative activity against human MDA-MB-468 cells after 48 hrs by SRB assay; assay type: functional; details: MDA-MB-468, 48 h, read-out: LC50 (the source's name)
[36] = test system: SK-OV-3; test: Growth inhibition of human SKOV3 cells at 10^-5 M incubated for 48 hrs by sulforhodamine B assay relative to control; assay type: functional; details: SK-OV-3, 48 h, read-out: GI

## O=C(CN1CCN(c2cc3c(cc2F)c(=O)c(C(=O)O)cn3C2CC2)CC1)N/N=C/c1c[nH]c2ccccc12
[1]
  inhibition of growth at 10 µM: 54.4%
[2]
  inhibition of growth at 10 µM: 43%
[3]
  inhibition of growth at 10 µM: < 20%
[4]
  inhibition of growth at 10 µM: 24.6%
[5]
  inhibition of growth at 10 µM: < 20%
[6]
  inhibition of growth at 10 µM: < 20%
[7]
  inhibition of growth at 10 µM: < 20%
[8]
  inhibition of growth at 10 µM: < 20%
[9]
  inhibition of growth at 10 µM: < 20%
[10]
  inhibition of growth at 10 µM: < 20%
[11]
  inhibition of growth at 10 µM: < 20%
[12]
  inhibition of growth at 10 µM: < 20%
[13]
  inhibition of growth at 10 µM: < 20%
[14]
  inhibition of growth at 10 µM: < 20%
[15]
  inhibition of growth at 10 µM: 28.3%
[16]
  inhibition of growth at 10 µM: < 20%
[17]
  inhibition of growth at 10 µM: 27.1%
[18]
  inhibition of growth at 10 µM: 20.9%
[19]
  inhibition of growth at 10 µM: < 20%
[20]
  inhibition of growth at 10 µM: < 20%
[21]
  IC50: 1.55 µM
[22]
  Ratio IC50: 5.7
[23]
  CC50: 15.9 µM
[24]
  diameter of the inhibition zone (DIZ): 37 mm
[25]
  MIC: 58 µg/mL (≈ 109 µM)
[26]
  diameter of the inhibition zone (DIZ): 31 mm
[27]
  diameter of the inhibition zone (DIZ): 31 mm
[28]
  diameter of the inhibition zone (DIZ): 33 mm
[29]
  MIC: 30 µg/mL (≈ 56.5 µM)

## O=C(CN1CCN(c2cc3c(cc2F)c(=O)c(C(=O)O)cn3C2CC2)CC1)N/N=C/c1ccccc1C(F)(F)F
[1]
  inhibition of growth at 10 µM: < 20%
[2]
  inhibition of growth at 10 µM: < 20%
[3]
  inhibition of growth at 10 µM: 21.2%
[4]
  inhibition of growth at 10 µM: 27.3%
[5]
  inhibition of growth at 10 µM: 25%
[6]
  inhibition of growth at 10 µM: < 20%
[7]
  inhibition of growth at 10 µM: 35.9%
[8]
  inhibition of growth at 10 µM: < 20%
[9]
  inhibition of growth at 10 µM: 22.5%
[10]
  inhibition of growth at 10 µM: 29.9%
[11]
  inhibition of growth at 10 µM: 32.3%
[12]
  inhibition of growth at 10 µM: 22.1%
[13]
  inhibition of growth at 10 µM: 33.4%
[14]
  inhibition of growth at 10 µM: 20.7%
[15]
  inhibition of growth at 10 µM: 37.4%
[16]
  inhibition of growth at 10 µM: 24.9%
[17]
  inhibition of growth at 10 µM: < 20%
[18]
  inhibition of growth at 10 µM: 23.6%
[19]
  inhibition of growth at 10 µM: 25.1%
[20]
  inhibition of growth at 10 µM: 34.7%
[30]
  IC50: 4.92 µM
[31]
  IC50: 2.16 µM
[32]
  Ratio IC50: 1.5 - 9
[33]
  Ratio IC50: 1.3
[34]
  LC50: 15.9 µM
[35]
  CC50: 15.6 µM
[24]
  diameter of the inhibition zone (DIZ): 28 mm
[26]
  diameter of the inhibition zone (DIZ): 25 mm
[27]
  diameter of the inhibition zone (DIZ): 26 mm
[28]
  diameter of the inhibition zone (DIZ): 25 mm

## O=C(CSc1nnc(CN2CCN(c3cc4c(cc3F)c(=O)c(C(=O)O)cn4C3CC3)CC2)o1)c1ccc(Cl)cc1
[4]
  inhibition of growth at 10 µM: < 20%
[6]
  inhibition of growth at 10 µM: 23.5%
[7]
  inhibition of growth at 10 µM: 27.2%
[11]
  inhibition of growth at 10 µM: < 20%
[15]
  inhibition of growth at 10 µM: < 20%
[16]
  inhibition of growth at 10 µM: < 20%
[19]
  inhibition of growth at 10 µM: 23%
[36]
  inhibition of growth at 10 µM: 20.9%
